Test: wn = mass fraction of the nth substance listed
Conditions: 100 kPa, Liquid; for viscosity: Cone and plate viscometry; for mass density: Vibrating tube method

CC(CC(C)(C)C)CP(=O)([O-])CC(C)CC(C)(C)C.CCCCCCCCCCCCCC[P+](CCCCCC)(CCCCCC)CCCCCC + CCCC(=O)O
Conditions | mass density, 298 K [kg/m3] | mass density, 310 K [kg/m3] | mass density, 318 K [kg/m3] | viscosity, 298 K [mPa·s] | viscosity, 310 K [mPa·s] | viscosity, 318 K [mPa·s]
w2 = 0 | 884.09 | 876.93 | 872.2 | 1023 | 521 | 345
w2 = 0.0122 | 886.44 | 879.26 | 874.5 | 952 | 465 | 304
w2 = 0.0346 | 892.23 | 884.71 | 879.8 | 785 | 389 | 257
w2 = 0.0349 | 889.81 | 882.5 | 877.64 | 787 | 388 | 255
w2 = 0.0684 | 893.84 | 886.39 | 881.5 | 562 | 278 | 185
w2 = 0.14 | 899.77 | 892.33 | 887.48 | 348 | 181 | 123
w2 = 0.242 | 909.13 | 901.49 | 896.4 | 216 | 118 | 82.2
w2 = 0.301 | 914.05 | 906.22 | 901 | 159 | 87.9 | 62.1
w2 = 0.375 | 919.8 | 911.62 | 906.17 | 92.7 | 53.5 | 38.9
w2 = 0.44 | 924.13 | 915.64 | 909.99 | 56.9 | 34.4 | 25.5
w2 = 0.491 | 927.26 | 918.52 | 912.71 | 38.8 | 24.6 | 18.8
w2 = 0.715 | 939.25 | 929.27 | 922.63 | 7.55 | 5.51 | 4.56
w2 = 0.991 | 953.5 | 941.63 | 933.77 | 1.69 | 1.39 | 1.23
